Measurements reported in article PMC8042727, “Apoptosis-like cell death upon kinetoplastid induction by compounds isolated from the brown algae Dictyota spiralis” (Parasites & Vectors, 2021).

Assays:
Format in all cases: cell-based
[1] = test system: Leishmania amazonensis promastigotes; test: Anti-promastigotes assay (AlamarBlue, 72 h); settings: for IC50: 72 h, read-out: IC50: promastigote; for IC90: nonlinear regression of AlamarBlue curve, read-out: IC90 Leishmania amazonensis: promastigote
Experimental: Experiments including in vitro activity assays of isolated compounds 1–3 were performed against the promastigote and amastigote stages of Leishmania amazonensis (MHOM/BR/77/LTB0016) and the epimastigote stage of Trypanosoma cruzi (Y strain). Promastigotes of L. amazonensis were cultured in Schneider’s medium (Sigma-Aldrich, St. Louis, MO, USA). Typanosoma cruzi strain Y was cultured in liver Infusion tryptose (LIT) medium.
The bioassay was performed using the AlamarBlue® method as previously described. Promastigotes of L. amazonensis were grown at 26 °C in RPMI 1640 modified medium (Gibco BRL Life Technologies Inc., Gaithersburg, MD, USA) and supplemented with 10% heat-inactivated fetal bovine serum (FBS). Cultures in the logarithmic phase were seeded in sterilized 96-well microtiter plates (Corning™, Corning, NY, USA) (10^6 parasites/ml) containing the samples dissolved in 1% DMSO at the suitable concentration to be tested in serial dilutions, and Leishmania medium (RPMI 1640) was used to reach a final volume of 200 μl per well; then 10% of AlamarBlue® was added to the entire plate. After an incubation of 72 h, the plate was checked visually using an inverted microscope, then analyzed using an Enspire multimode plate reader (PerkinElmer, Inc., Waltham, MA, USA) at excitation and emission wavelengths of 570 and 585 nm, respectively. Dose–response curves were plotted, and the concentration at which one half of the maximal inhibitory effect was obtained (IC50) was determined. The analyses were performed in triplicate.
Hoechst dye is a blue-fluorescent dye that stains condensed chromatin of apoptotic cells. To detect DNA condensation, the chromatin condensation/dead cell apoptosis kit was used (Invitrogen, Thermo Fisher Scientific, Waltham, MA, USA). Cells were incubated in the presence of the compounds to be tested at IC90. The IC90 values were determined using nonlinear regression of the AlamarBlue® curve. After 24 h of incubation, cells were harvested and resuspended in medium, following which 1 μl of Hoechst 33342 stock solution was added to parasites and incubated for 20 min. Results were analyzed by cell imaging using the Evos FL cell imaging system (Thermo Fisher Scientific). The experiments were repeated using a double-stain apoptosis detection kit (Hoechst 33342/PI; Thermo Fisher Scientific). […] A positive control was also tested: miltefosine (L. amazonensis) and benznidazole (T. cruzi).

[2] = Cytotoxicity on macrophages (AlamarBlue, 24 h); settings: mouse, J774A.1 macrophages, J774A.1, 24 h, read-out: CC50: murine macrophages
Experimental: Cytotoxicity of the tested molecules was evaluated after 24 h using macrophages of the murine cell line J774.A1 (American Type Culture Collection #TIB-67). The cells were maintained in DMEM medium at 37 °C in a 5% CO2 humidified incubator. The viability of the macrophages was determined with the AlamarBlue assay and the emitted fluorescence was assayed in an Enspire microplate reader (PerkinElmer Inc.) at 570/585 nm. Briefly, 50 µl of macrophages was placed in a 96-well flat bottom plate at a density of 2 × 10^5/ml in RPMI medium supplemented with 10% FBS without phenol. Cells were allowed to adhere for 15 min, and their progress was checked using a Leika inverted microscope (Leika Camera AG, Wetzlar, Germany). At the same time, a serially dilution of the test compounds was made in a deep 96-well plate with the same medium, and then 50 µl of each serially diluted molecule was added to each well of the 96-well flat bottom plate. Finally, 10% of AlamarBlue was added to each well. The plates were incubated at 37 °C in 5% CO2 for 24 h. Dose–response curves were plotted and the 50% cytotoxic concentrations (CC50) were obtained. The analyses were performed in triplicate.

[3] = test system: Leishmania amazonensis; test: Oxidative stress / ROS accumulation (CellROX Deep Red); settings: L. amazonensis, IC90, 24 h
Experimental: The reagent used for this assay was a fluorogenic probe to measure cellular oxidative stress upon oxidation by reactive oxygen species (ROS). To perform the test, cells were incubated with the compounds to be tested, at IC90 for 24 h. The cells were centrifuged and resuspended in a volume of 50 μl, following which CellROX™ Deep Red oxidative stress reagent (Thermo-Fisher Scientific) was added to 96-well plates at […]. The plates were then incubated for 30 min at 37 °C. After incubation, the results were analyzed by cell imaging using the Evos cell imaging system. Cells treated with different compounds were compared with untreated control cells and the positive control. Fluorescence intensity was also measured using the Enspire multimode plate reader at excitation/emission wavelengths of 640/665 nm. Accumulation ROS at the cellular level is a good indicator of oxidative stress and is precursor to a chain reaction leading damage at the cellular level to proteins, nucleic acids, lipids, membrane and organelles. These cellular alterations can lead to activation of the cell death process. As such, ROS play an important role in cell signaling and the apoptosis pathway. An intracellular excess of ROS can be detected by the cell-permeable CellROX™ Deep Red reagent, which is a fluorogenic ROS sensor.

[4] = test system: Leishmania amazonensis amastigotes; test: Anti-amastigotes assay (intra-macrophagic stage, J774A.1); settings: for Selectivity index: CC50 murine macrophages / IC50 amastigote; for IC50: J774.A1, Leishmania amazonensis, intracellular in J774A.1, read-out: IC50: amastigote
Experimental: The three molecules 1-3 were tested against the intra-macrophagic stage of L. amazonensis as previously described. Briefly, in a 96-well, flat-bottom plate, macrophages of the J774A.1 cell line (American Type Culture Collection #TIB-67) were cultured at a density of 2 × 10^5 cells/ml in RPMI 1640 medium supplemented with 10% heat-inactivated FBS and incubated for 1 h at 37 °C in a 5% CO2 atmosphere to allow almost complete attachment of the cells. The macrophages were then infected with L. amazonensis promastigotes in the stationary phase (7-day-old culture) at a ratio of 1:10 (macrophage:parasite) at a concentration of 2 × 10^6 cells/ml and incubated at 37 °C in 5% CO2 for 24 h. Wells were washed with medium to remove external promastigotes. Thereafter, the infected macrophages were treated with the serially diluted concentrations of the pure compounds for 24 h, following which the medium was removed carefully and replaced by 30 μl of new medium containing 0.05% sodium dodecyl sulfate and the plate shaken for 30 s. Subsequently, 170 μl of Schneider’s medium was added to each well to give a final volume of 200 μl, and 20 μl of AlamarBlue® was added to the plate; the plate was then incubated at 26 °C for 72 h, following which the plates were analyzed using the same protocol as for the promastigotes assay.

SMILES | IC50 [1] | IC90 [1] | CC50 at 24 h [2] | ROS accumulation (fluorescence vs negative control) [3] | Selectivity index [4] | IC50 [4]
CC(C)=CCC[C@](C)(O)[C@@H]1CC[C@@H](C)[C@@H]2CC=C(C)[C@H]2[C@@H]1O [Compound 1, pachydictyol C] | 18.9 ± 5.28 µM | 39.5 µM | 37 ± 2.74 µM | more remarkable | 37.76 | 0.97 ± 0.13 µM
C=C1CC[C@@H]([C@@](C)(O)CCC=C(C)C)[C@@H](O)[C@@H]2C(C)=CC[C@@H]12 [Compound 2, dictyol E] | 18.9 ± 0.42 µM | 34.9 µM | 52.1 ± 6.63 µM | slight increase in fluorescence but the increase was not significant | 25.56 | 2.03 ± 0.22 µM
C=C(C)[C@H]1CC[C@]2(C)C[C@@H]3O[C@@]3(C)CC/C=C(\C)CC[C@@H]12 [Compound 3, 3,4-epoxy-7,18-dolabelladiene] | – | 74.9 µM | 69.98 ± 0.13 µM | more remarkable | 18.02 | 3.88 ± 0.17 µM
